The values below are quoted from earlier work in patent US20240156966A1 (priority 2021, published 2024).

In the data set the test system is influenza virus. The note with it: in vivo.

Regarding `CCOC(=O)C1=C[C@@H](OC(CC)CC)[C@H](NC(C)=O)[C@@H](N)C1` [Oseltamivir], the “patients with detectable viral RNA” value is on record as 50.0%.
